Assay results: US20050009820A1, “Thiochromenones used to combat painful conditions and neurodegenerative diseases” (priority 2001, published 2005)
pIC50: −log10 of the molar value.

Assays:
mGluR1 receptor = target: T1, mGluR1 receptor (Homo sapiens, UniProt Q13255); test: Determination of the activity on the mGluR1 receptor (luciferase luminescence in mGluR1 receptor-expressing CHO cells stimulated with 1 mM glutamate); format: cell-based; settings: 1 mM glutamate with the test substance, 37° C., 4 h, luminescence readout
T1 construct: expressed in transfected cells; host or cells: CHO cells
Method: 1. Determination of the activity on the mGluR1 receptor
mGluR1 receptor-expressing CHO cells are seeded in 96-well plates (Greiner, Frickenhausen, Germany) (20 000 cells/well) and cultivated in ultra CHO medium (Bio-Whittaker, Walkersville, Md., 10% fetal calf serum) for one day. The substances to be tested are initially dissolved in a concentration of 10^−2 M in 100% DMSO and then diluted to the desired concentration with the culture medium. After being washed once with cell culture medium, the cells are incubated with 1 mM glutamate and simultaneously with the substance to be tested at 37° C. for 4 h. The medium is then aspirated off and the cells are lysed with 75 μl of Triton-luciferase buffer (1% Triton X 100, 10% glycerol, 2 mM DTT, 25 mM Na2HPO4, 25 mM TRIS), (530 μM ATP, 470 μM luciferin, 270 μM CoA, 20 mM tricine, 2.67 mM MgSO4, 33.3 mM DTT, 0.1 mM EDTA, pH 7.8). The luminescence is measured after one minute using a camera (Hamamatsu, Japan). Cells incubated only with glutamate show a marked increase in the luminescence compared with controls, while mGluR1 receptor antagonists reduce this concentration-dependently to below the initial luminscence.

T1 sequence (Q13255 19-1194): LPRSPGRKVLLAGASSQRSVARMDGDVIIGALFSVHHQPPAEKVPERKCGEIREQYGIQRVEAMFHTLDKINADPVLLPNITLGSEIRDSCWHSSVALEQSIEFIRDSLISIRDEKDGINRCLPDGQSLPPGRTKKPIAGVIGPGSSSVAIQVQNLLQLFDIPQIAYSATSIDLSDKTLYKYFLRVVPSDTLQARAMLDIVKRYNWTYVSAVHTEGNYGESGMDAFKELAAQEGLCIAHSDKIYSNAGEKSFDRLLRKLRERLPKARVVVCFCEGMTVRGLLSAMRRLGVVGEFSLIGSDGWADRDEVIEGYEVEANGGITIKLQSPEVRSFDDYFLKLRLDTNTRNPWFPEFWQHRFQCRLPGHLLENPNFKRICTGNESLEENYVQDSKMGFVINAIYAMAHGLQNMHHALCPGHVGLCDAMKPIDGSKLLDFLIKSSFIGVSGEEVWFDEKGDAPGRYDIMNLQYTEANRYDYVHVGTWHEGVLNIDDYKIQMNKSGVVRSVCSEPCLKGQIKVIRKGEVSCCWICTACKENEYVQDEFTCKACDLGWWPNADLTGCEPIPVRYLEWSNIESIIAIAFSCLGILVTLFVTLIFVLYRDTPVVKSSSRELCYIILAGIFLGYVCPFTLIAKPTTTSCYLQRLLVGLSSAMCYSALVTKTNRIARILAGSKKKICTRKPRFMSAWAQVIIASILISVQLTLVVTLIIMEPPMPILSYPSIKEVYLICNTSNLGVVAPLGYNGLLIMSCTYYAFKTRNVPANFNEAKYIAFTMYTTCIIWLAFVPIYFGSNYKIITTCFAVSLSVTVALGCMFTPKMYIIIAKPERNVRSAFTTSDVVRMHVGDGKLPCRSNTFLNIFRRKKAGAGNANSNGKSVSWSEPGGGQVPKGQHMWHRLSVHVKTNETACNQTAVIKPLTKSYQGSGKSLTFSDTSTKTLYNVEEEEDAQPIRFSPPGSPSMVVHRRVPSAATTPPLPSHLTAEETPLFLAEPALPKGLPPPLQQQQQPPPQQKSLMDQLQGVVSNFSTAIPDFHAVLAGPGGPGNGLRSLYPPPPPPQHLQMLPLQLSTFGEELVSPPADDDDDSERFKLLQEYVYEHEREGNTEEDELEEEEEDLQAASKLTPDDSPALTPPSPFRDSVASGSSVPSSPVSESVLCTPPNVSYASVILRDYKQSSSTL

CCC1CCc2c(sc3cc(-c4nnn[nH]4)ccc3c2=O)C1 (stereo not shown) [Example 1-3, 3-Ethyl-6-(1H-tetrazol-5-yl)-1,2,3,4-tetrahydro-9H-thioxanthen-9-one]
pIC50 (mGluR1 receptor): 8.05

CCC1CCc2c(sc3cc(-c4cccs4)ccc3c2=O)C1 (stereo not shown) [Example 1-10, 3-Ethyl-6-(2-thienyl)-1,2,3,4-tetrahydro-9H-thioxanthen-9-one]
pIC50 (mGluR1 receptor): 7.01

CC1(C)CCc2c(sc3cc(-c4cccc(C#N)c4)ccc3c2=O)C1 [Example 1-27, 3-(3,3-Dimethyl-9-oxo-2,3,4,9-tetrahydro-1H-thioxanthen-6-yl)benzonitrile]
pIC50 (mGluR1 receptor): 7.64

CCC1CCc2c(sc3cc(-c4cccc(C#N)c4)ccc3c2=O)C1 (stereo not shown) [Example 1-29, 3-(3-Ethyl-9-oxo-2,3,4,9-tetrahydro-1H-thioxanthen-6-yl)benzonitrile]
pIC50 (mGluR1 receptor): 7.68

CC1(C)CCc2c(sc3cc(-c4cccnc4)ccc3c2=O)C1 [Example 1-31, 3,3-Dimnethyl-6-(3-pyridinyl)-1,2,3,4-tetrahydro-9H-thioxanthen-9-one]
pIC50 (mGluR1 receptor): 7.51

CCC1CCc2c(sc3cc(-c4noc(=O)[nH]4)ccc3c2=O)C1 (stereo not shown) [Example 1-34, 3-(3-Ethyl-9-oxo-2,3,4,9-tetrahydro-1H-thioxanthen-6-yl)-1,2,4-oxadiazol-5(4H)-one]
pIC50 (mGluR1 receptor): 7.09

CC1(C)CCc2c(sc3cc(NS(C)(=O)=O)ccc3c2=O)C1 [Example 2-11, N-(3,3-Dimethyl-9-oxo-2,3,4,9-tetrahydro-1H-thioxanthen-6-yl)methanesulfonamide]
melting point: 272 °C

CC1(C)CCc2c(sc3cc(NS(=O)(=O)c4ccccc4)ccc3c2=O)C1 [Example 2-12, N-(3,3-Dimethyl-9-oxo-2,3,4,9-tetrahydro-1H-thioxanthen-6-yl)benzenesulfonamide]
melting point: 231 °C

Cc1ccc(S(=O)(=O)Nc2ccc3c(=O)c4c(sc3c2)CC(C)(C)CC4)cc1 [Example 2-13, N-(3,3-Dimethyl-9-oxo-2,3,4,9-tetrahydro-1H-thioxanthen-6-yl)-4-methylbenzenesulfonamide]
melting point: 279 °C

CC1(C)CCc2c(sc3cc(OS(=O)(=O)Cc4ccccc4OC(F)(F)F)ccc3c2=O)C1 [Example 2-14, 3,3-Dimethyl-9-oxo-2,3,4,9-tetrahydro-1H-thioxanthen-6-yl [2-(trifluoromethoxy)-phenyl]methanesulfonate]
melting point: 249 °C

CC(C)S(=O)(=O)Nc1ccc2c(=O)c3c(sc2c1)CC(C)(C)CC3 [Example 2-15, N-(3,3-Dimethyl-9-oxo-2,3,4,9-tetrahydro-1H-thioxanthen-6-yl)isopropylsulfonamide]
melting point: 263 °C

CC1(C)CCc2c(sc3cc(-n4cccc4)ccc3c2=O)C1 [Example 2-24, 3,3-Dimethyl-6-(1H-pyrrol-1-yl)-1,2,3,4-tetrahydro-9H-thioxanthen-9-one]
melting point: 169 °C

CCC1CCc2c(sc3cc(-n4cccc4)ccc3c2=O)C1 (stereo not shown) [Example 2-25, 3-Ethyl-6-(1H-pyrrol-1-yl)-1,2,3,4-tetrahydro-9H-thioxanthen-9-one]
melting point: 145 °C

CCC1CCc2c(sc3cc(N(C)CCOC)ccc3c2=O)C1 (stereo not shown) [Example 3-21, 3-Ethyl-6-[(2-methoxyethyl)(methyl)amino]-1,2,3,4-tetrahydro-9H-thio-xanthen-9-one]
pIC50 (mGluR1 receptor): 7.66

CCC1CCc2c(sc3cc(N4CCCCC4)ccc3c2=O)C1 (stereo not shown) [Example 3-22, 3-Ethyl-6-(1-piperidinyl)-1,2,3,4-tetrahydro-9H-thioxanthen-9-one]
pIC50 (mGluR1 receptor): 7.89

CCC1CCc2c(sc3cc(N4CCCCC4)c(F)cc3c2=O)C1 (stereo not shown) [Example 3-23, 3-Ethyl-7-fluoro-6-(1-piperidinyl)-1,2,3,4-tetrahydro-9H-thioxanthen-9-one]
pIC50 (mGluR1 receptor): 7.55

CCC(=O)Nc1ccc2c(=O)c3c(sc2c1)CC(CC)CC3 (stereo not shown) [Example 3-49, N-(3-Ethyl-9-oxo-2,3,4,9-tetrahydro-1H-thioxanthen-6-yl)propanamide]
pIC50 (mGluR1 receptor): 7.46

CCC1CCc2c(sc3cc(-c4cncnc4)ccc3c2=O)C1 (stereo not shown) [Example 3-55]
pIC50 (mGluR1 receptor): 7.46

CCC1CCc2c(sc3cc(N(C)S(=O)(=O)c4cccc(C#N)c4)ccc3c2=O)C1 (stereo not shown) [Example 4-8, 3-Cyano-N-(3-ethyl-9-oxo-2,3,4,9-tetrahydro-1-thioxanthen-6-yl)-N-methylbenzenesulfonamide]
pIC50 (mGluR1 receptor): 7.60
